# Experimental data as given in US7943606B2, “Compositions and methods to control abnormal cell growth” (CanCure Laboratories, LLC, priority 2005, dated 2011).
# B1: PALP: human placental alkaline phosphatase, highly purified from commercial (Sigma-Aldrich) PALP (protein, UniProt P05187 23-506, looked up)
# Alkaline phosphatase, …: IIPVEEENPDFWNREAAEALGAAKKLQPAQTAAKNLIIFLGDGMGVSTVTAARILKGQKKDKLGPEIPLAMDRFPYVALSKTYNVDKHVPDSGATATAYLCGVKGNFQTIGLSAAARFNQCNTTRGNEVISVMNRAKKAGKSVGVVTTTRVQHASPAGTYAHTVNRNWYSDADVPASARQEGCQDIATQLISNMDIDVILGGGRKYMFRMGTPDPEYPDDYSQGGTRLDGKNLVQEWLAKRQGARYVWNRTELMQASLDPSVTHLMGLFEPGDMKYEIHRDSTLDPSLMEMTEAALRLLSRNPRGFFLFVEGGRIDHGHHESRAYRALTETIMFDDAIERAGQLTSEEDTLSLVTADHSHVFSFGGYPLRGSSIFGLAPGKARDRKAYTVLLYGNGPGYVLKDGARPDVTESESGSPEYRQQSAVPLDEETHAGEDVAVFARGPQAHLVHGVQEQTFIAHVMAFAACLEPYTACDLAPPAGTTD
# Tests used:
# [1] = Toxicological studies in mice; type: in vivo, mouse; details: 200-500 μmole/animal
# Method: Accordingly, a well-tolerated dose for CCDTHT in mice is 450 μmole/animal (weighing about 25 g) which corresponds to a dose of 4.6 mg/kg. Therapeutically effective concentrations in humans will exert maximal inhibitory effects on the growth of non-healthy tissues without causing significant toxicity in normal healthy tissues.
# Parallel toxicological studies also have been performed with 200-500 μmole/animal doses of the commercially available CCompound1. […] CCompound26, which may have an even better toxicity profile based on in vitro experiments with normal cells, was synthesized much later and has not yet been tested in animal experiments.
# MCF-7 cells = assay: Viability of MCF-7 breast cancer cells; type: cell-based, human; details: 0-200 μM, 72 hours, MTT
# Method: (§1) To quantify cell death, around the time when significant and characteristic morphological changes took place, cells were pulse-labeled for 10 minutes with [^3H]thymidine to measure DNA activity as described elsewhere [Tomono, M. and Kiss, Z. (1995), “Ethanol enhances the stimulatory effects of insulin and insulin-like growth factor-I on DNA synthesis in NIH 3T3 fibroblasts,” Biochem. Biophys. Res. Commun. 208, 63-67]. Also, cells were collected as suspensions using trypsin, an established method in cell biology, followed by re-plating of cells in fresh tissue culture medium. If no viable cells were obtained after one week in culture, it meant that the cells at the time of re-plating were dead. Survival values obtained with untreated cells were considered 100%. For the determination of relative number of viable cells after treatments, in most cases the MTT assay was used. This calorimetric assay is based on the ability of living cells, but not dead cells, to reduce 3-(4,5-dimethyl thiazol-2-yl)-2,5-diphenyltetrazolium bromide [Carmichael, J, De Graff, W. G., Gazdar, A. F., Minna, J. D. and Mitchell, J. B. (1987), “Evaluation of tetrazolium-based semi-automated calorimetric assay: Assessment of chemosensitivity testing,” Cancer Res. 47, 936-942]. For this assay, cells were plated in 96-well plates, and the MTT assay was performed both in untreated and treated cell cultures. The MTT assay also was performed at the start of treatments to allow assessment of proliferation rates in the control and treated cell cultures.
# About 50% confluent cultures of MCF-7 cells, cultured in 12-well plates in Dulbecco's modified Eagle's medium (DMEM) supplemented with 10% FBS, were either untreated (FIG. 3A), or were treated with 100 μM CCDTHT (CCompound3) for 72 hours (FIG. 3B). […] This experiment was repeated three times with similar results. In some experiments, cells from the CCDTHT-treated cultures were seeded into 96-well plates, and the MTT assay was performed 96 hours later to test for viable cells.
# (§2) The NIH 3T3 (normal) mouse fibroblast, A431 human epidermoid adenocarcinoma, and MCF-7 human breast cancer cells were cultured in DMEM medium containing 10% FBS. The MEL-28 human melanoma cells were cultured in MEM medium containing 10% FBS. The HT-29 human colon adenocarcinoma cells were cultured in McCoy's 5a medium containing 10% FBS. The A549 human lung carcinoma cells were maintained in Ham's F12K medium containing 10% FBS. Cells were seeded into 96-well plates and treated at ˜70-90% confluency. Two hours before treatments the medium was changed for fresh 10% serum medium, and then the cells were incubated for 72 hours in the presence of 0-200 μM of CCompound1 (●) or CCompound3 (CCDTHT) (▴), as indicated. The MTT assay was used to determine cell viability after treatments. The values, shown in FIGS. 5A-5F and expressed as percent decrease in viability compared to the untreated control cells, are the mean±std. dev. of 8 incubations in one experiment. Similar results were obtained in another experiment.
# NIH 3T3, AN3CA, HT-29, MEL-28, and MCF-7 cells were cultured as described earlier. Cells were seeded into 96-well plates; when cells were ˜80-90% confluent, the medium was changed for fresh 10% serum-containing medium, followed by incubations for 72 hours in the absence (□) or presence of 100 μM CCDTHT ? , 2 mM ethanolamine (Etn) ? , or 100 μM CCDTHT+2 mM Etn (▪). The MTT assay was used to determine cell viability. […]
# NIH 3T3 cells = assay: Viability of NIH 3T3 normal fibroblasts (MTT assay); type: cell-based; details: 0-200 μM, 72 hours, MTT
# Method: as §1, §2
# (§3) NIH3T3, T47D, A-431, HT-29, and MEL-28 cells were cultured as indicated earlier. CaOV-3 human ovarian cancer cells were cultured in DMEM containing 10% FBS. ZR-75-1 human estrogen receptor-positive breast cancer cells were maintained in RPMI 1640 medium supplemented with 10% FBS. HTB-157 human fetal fibroblasts, MEL-24 human malignant melanoma cells, Hep G2 human hepatoblastoma cells, and CaCO-2 human colon adenocarcinoma cells were maintained in Eagles's MEM containing 10% FBS. MB-231 human estrogen receptor-negative breast cancer cells were maintained in Leibovitz's L-15 medium supplemented with 10% FBS. Cells were seeded into 96-well plates and treated at ˜70-90% confluency. Two hours prior to treatments the medium was changed for fresh 10% serum medium, and then the cells were incubated for 10 days in the absence (□) or presence of 50 μM CCDTHT ? or 100 μM CCDTHT (▪). The medium was changed and the cells were re-treated on days 3 and 6. The MTT assay was used to determine cell viability on day 10. The data, shown in FIG. 6, are the mean±std. dev. of 8 incubations in one experiment. (The experiment was repeated twice with similar results).
# (§4) NIH 3T3, MEL-28, MEL-24, CaOV-3, ZR-75-1, and T47D cells were cultured as described above. The OVCAR human ovarian cancer cells were cultured in DMEM containing 10% FBS. Cells were seeded into 96-well plates and used at ˜60-80% confluency. […]
# A-431 cells = assay: Viability of A-431 epidermoid adenocarcinoma cells (MTT assay); type: cell-based, human; details: 0-200 μM, 72 hours, MTT
# Method: as §1, §2, §3, §4
# choline transport = assay: [14C]choline uptake and metabolism in AN3CA, MCF-7 and MEL-28 cancer cells; type: cell-based, human
# Method: MEL-28 and MCF-7 cells were cultured in MEM medium supplemented with 10% fetal bovine serum (FBS) and in DMEM medium supplemented with 10% FBS, respectively. The AN3CA human endometrial adenocarcinoma cells were maintained in Eagle's MEM containing 10% FBS. Cancer cells were grown up to confluency in 12-well plates in 10% fetal-bovine serum-containing medium, then incubated in the presence of 1 μCi of [methyl-^14C]choline (bought from Amersham; Piscataway, N.J.) for 2 hours. Cells were first rapidly (within 30 seconds) washed three times with 4 ml of serum-free medium, then extracted with ice-cold methanol. This was followed by the determination of cellular free radiolabeled choline and phosphocholine (PCho) by column chromatography as described earlier [Kiss, Z. and Crilly, K. S. (1995), “Tamoxifen inhibits uptake and metabolism of ethanolamine and choline in multidrug-resistant, but not in drug-sensitive, MCF-7 human breast carcinoma cells,” FEBS Lett. 360, 165-168], and the separation and determination of radiolabeled phosphatidylcholine (PtdCho) by thin layer chromatography as indicated in Kiss [Kiss, Z. (1996), “Direct proof that phorbol ester accelerates the use of choline phosphate for phosphatidylcholine synthesis in intact cells,” Arch. Biochem. Biophys. 335, 191-196].
# MCF-7 and MEL-28 cells were cultured as described earlier. The AN3CA human endometrial adenocarcinoma cells were maintained in Eagle's MEM containing 10% FBS. Each cell type was grown in 12-well plates to confluency and then incubated with 1 μCi of [methyl-^14C]choline for 2 hours in the absence (□) or presence of 100 μM CCDTHT ? or 0.5 mM HC-3 (▪), followed by the determination of cellular contents of radiolabeled choline (A), PCho (B) and PtdCho (C), as indicated in FIG. 9. […] Thus, if both CCDTHT and HC-3 influenced cell viability solely via inhibition of choline metabolism, then these agents should similarly affect cell viability, at least at the concentrations used in the choline transport experiment.
# [2] = cited from earlier work
molecule,measurement,setting,value
"Cc1c(OCC(O)C[N+](C)(C)C)cc2c(=O)c3ccccc3sc2c1C.[Cl-] (stereo not shown) [CCcompound1, [3-(3,4-Dimethyl-9-oxo-9H-thioxanthen-2-yloxy)-2-hydroxypropyl]trimethyl-ammonium chloride, reference compound]",tolerability,[1],similarly well tolerated
same,"decrease in viability, MCF-7",MCF-7 cells,similarly large effects
same,toxic effects in NIH 3T3 (normal) fibroblast cultures,NIH 3T3 cells,none of these compounds exerted major toxic effects
same,"decrease in viability, A-431",A-431 cells,similarly large effects
C[N+]1(C)CCOC(O)(c2ccc(-c3ccc(C4(O)C[N+](C)(C)CCO4)cc3)cc2)C1.[Br-].[Br-] (stereo not shown) [HC-3],"inhibitory effects on choline uptake and metabolism (choline, PCho, PtdCho)","choline transport; 100 μM CCDTHT or 0.5 mM HC-3, 2 hours, each cell line",comparably strong inhibitory effects
same,inhibition of choline transport,choline transport; 0.1 mM,20-25%
B1,half-life time,[2],120 to 140 h
